Data on 24 molecules can be found in ChEMBL document CHEMBL5233210, “Pyrazolone structural motif in medicinal chemistry: Retrospect and prospect” (Eur J Med Chem, 2020).

Assay [1] in a line: Antioxidant activity assessed as DPPH radical scavenging activity. Format: functional. (Loss of DPPH colour is used to gauge radical scavenging.)
In assay [2] the test system is Ehrlich. In words: Cytotoxicity against mouse Ehrlich ascites cells assessed as dead cells at 100 ug/ml. The assay is classed as functional. Particulars: dose 100 µg/ml.
Assay [3] relates to Ehrlich. Kind of assay: Cytotoxicity against mouse Ehrlich ascites cells assessed as dead cells at 500 ug/ml. The assay is classed as functional. Conditions: dose 500 µg/ml.
In assay [4] the test system is Ehrlich. Kind of assay: Cytotoxicity against mouse Ehrlich ascites cells assessed as dead cells at 25 ug/ml. Format: functional. Particulars: dose 25 µg/ml.
Assay [5] has as its system Escherichia coli. Kind of assay: Antibacterial activity against Escherichia coli. Format: functional.
Assay [6] relates to Aspergillus niger. In words: Antifungal activity against Aspergillus niger. The assay is classed as functional.
Assay [7] relates to Candida albicans. Kind of assay: Antifungal activity against Candida albicans. Format: functional.
In assay [8] the test system is Streptococcus pyogenes. In words: Antibacterial activity against Streptococcus pyogenes. The assay is classed as functional.
For assay [9], the system named is Pseudomonas aeruginosa. Kind of assay: Antibacterial activity against Pseudomonas aeruginosa. The assay is classed as functional.
The test system of assay [10] is Staphylococcus aureus. Kind of assay: Antibacterial activity against Staphylococcus aureus. The assay is classed as functional.
Assay [11] deals with Bacillus subtilis. In words: Antibacterial activity against Bacillus subtilis. Format: functional.
Assay [12] has as its system Rattus norvegicus. In words: Antiinflammatory activity against rat assessed as inhibition of carrageenan-induced paw edema relative to control. The assay is classed as functional. On the set-up: concentration or dose not given beside the values. (The carrageenan paw model is a standard test of acute inflammation.)
The subject of assay [13] is MCF7. Kind of assay: Cytotoxicity against human MCF7 cells. The assay is classed as functional, cell-based.
The test system of assay [14] is Bacillus subtilis. In words: Antibacterial activity against Bacillus subtilis assessed as diameter of inhibition zone at 100 ppm. Format: functional. Conditions: read-out: DIZ.
Assay [15] relates to Escherichia coli. In words: Antibacterial activity against Escherichia coli assessed as diameter of inhibition zone at 100 ppm. The assay is classed as functional. Conditions: read-out: DIZ.
The species named for assay [16] is Ovis aries. Kind of assay: Selectivity index, ratio of IC50 for ovine COX-1 to IC50 for ovine COX-2.
The target of assay [17] is T1, Prostaglandin G/H synthase 1 (Ovis aries, UniProt P05979).
T1 sequence (P05979 whole entry): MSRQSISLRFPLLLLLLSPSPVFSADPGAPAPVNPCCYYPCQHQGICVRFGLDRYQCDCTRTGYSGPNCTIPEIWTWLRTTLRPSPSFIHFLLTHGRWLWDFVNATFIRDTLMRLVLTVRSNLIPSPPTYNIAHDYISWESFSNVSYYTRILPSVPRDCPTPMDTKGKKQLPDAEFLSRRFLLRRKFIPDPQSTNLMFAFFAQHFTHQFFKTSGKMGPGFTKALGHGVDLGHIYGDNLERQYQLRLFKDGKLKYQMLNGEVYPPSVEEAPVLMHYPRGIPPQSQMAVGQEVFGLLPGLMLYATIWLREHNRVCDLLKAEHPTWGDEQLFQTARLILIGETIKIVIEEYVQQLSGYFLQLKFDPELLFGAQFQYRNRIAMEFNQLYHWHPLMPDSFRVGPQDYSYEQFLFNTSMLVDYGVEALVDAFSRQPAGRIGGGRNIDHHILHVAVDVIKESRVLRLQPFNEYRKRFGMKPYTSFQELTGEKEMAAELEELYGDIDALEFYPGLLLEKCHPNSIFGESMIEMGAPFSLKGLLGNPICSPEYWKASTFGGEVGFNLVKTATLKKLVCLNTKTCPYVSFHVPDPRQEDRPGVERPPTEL
In words: Inhibition of ovine COX-1.

The subject of assay [18] is Rattus norvegicus. In words: Antiinflammatory activity against rat assessed as inhibition of carrageenan-induced paw edema. Format: functional.
Assay [19] is described as follows: Antioxidant activity assessed as ABTS radical scavenging activity. The assay is classed as functional.

Values after ≈ are worked out from the molar mass of the structure shown. Bounds are passed on as bounds.

What is called IC50 is the midpoint of a concentration-inhibition curve. For `Cc1c(/N=C/c2ccccc2)c(=O)n(-c2ccccc2)n1C`, the IC50 in assay [1] was determined as 31.3 µM.
As for `CCCOC(=O)c1cc(O)c(O)c(O)c1` [PROPYL GALLATE], in assay [1], the IC50 was 30.3 µM.
For `CC1=NNC(=O)/C1=N/Nc1sc2c(c1C(N)=O)CCCC2`, the values for the Activity in assay [2], in [3] and in assay [4] were 96.5%, 66.6% and 38.1%, respectively.
For the molecule `C/C(=N\c1c(C)n(C)n(-c2ccccc2)c1=O)c1ccc(O)cc1O`, the IC50 in [1] turned out to be 19.1 µM.
For orientation: MIC means the least concentration at which growth counts as inhibited. As to `CC1=NN(C(=S)NN)C(=O)/C1=N/Nc1ccc(Cl)cc1`, the MIC amounted to 188 µg/mL (≈ 603 µM) in assay [5], 5.8 µg/mL (≈ 18.7 µM) in assay [6] and 15.6 µg/mL (≈ 50.2 µM) in assay [7].
Take `O=C1/C(=C\c2coc3ccc(Cl)cc3c2=O)C(C(F)(F)F)=NN1c1c(F)c(F)cc(F)c1F`: the minimal inhibitory concentration (MIC) came to 125 µg/mL (≈ 255 µM) in assay [5]; 200 µg/mL (≈ 408 µM) in assay [8]; 500 µg/mL (≈ 1020 µM) in assay [6]; 62.5 µg/mL (≈ 127 µM) in assay [9]; 1000 µg/mL (≈ 2040 µM) in assay [7]; 250 µg/mL (≈ 509 µM) in assay [10]. In assay [11], the MIC was 250 µg/mL (≈ 509 µM).
As for `CCOC(=O)c1c(N/N=C2/C(=O)NN=C2C)sc2c1CCCC2`, the results for the Activity in assay [2], in assay [3] and in [4] were 79.4%, 71% and 43%, respectively.
The corresponding values for `CCOC(=O)c1c(N/N=C2/C(=O)NN=C2N)sc2c1CCCC2` are 98.1%, 79% and 60%.
Regarding `COc1ccc(N/N=C2\C(=O)N(CC(=O)n3[nH]c(N)cc3=O)N=C2C(F)(F)F)cc1`, the MIC in [5] stood at 15.3 µg/mL (≈ 35.9 µM); in [6], 5.3 µg/mL (≈ 12.5 µM); in assay [9], 9.58 µg/mL (≈ 22.5 µM); in [7] it was 9.22 µg/mL (≈ 21.7 µM); in assay [10] it was 8.02 µg/mL (≈ 18.9 µM).
For the molecule `CC1=NN(C(=S)NN)C(=O)/C1=N/Nc1ccc(S(N)(=O)=O)cc1`, the MIC in [5] was 125 µg/mL (≈ 352 µM); in assay [6], 5.8 µg/mL (≈ 16.3 µM); in assay [7] it was 11.6 µg/mL (≈ 32.6 µM).
Take `COc1cc(-c2cc(C3C(=O)N(c4ccccc4)N=C3C)nc(N)n2)ccc1O` (stereo not given): the Activity in assay [12] was determined as 61.23%.
Consider `O=C1/C(=C\c2coc3ccccc3c2=O)C(C(F)(F)F)=NN1c1c(F)c(F)cc(F)c1F`, for which the MIC was 500 µg/mL (≈ 1100 µM) in [5]; 200 µg/mL (≈ 438 µM) in [8]; above 1000 µg/mL in assay [6]; 500 µg/mL (≈ 1100 µM) in assay [9]; 250 µg/mL (≈ 548 µM) in [7]; 62.5 µg/mL (≈ 137 µM) in [10]. Moreover, the MIC in assay [11] was 62.5 µg/mL (≈ 137 µM).
In the case of `Cc1c(-n2cc(C#N)c(=O)n(-c3ccc(I)cc3)c2=S)c(=O)n(-c2ccccc2)n1C`, in assay [13], the IC50 turned out to be 30.7 µM.
As for `CCOC(=O)C1CCN(/C(Nc2ccccc2)=C2\C(=O)N(c3ccccc3)N=C2C)CC1`, the zone of inhibition at 100 µg/mL in assay [14] was found to be 36 mm; in assay [15], 40 mm.
Broadly, the ED50 is the midpoint of the dose-response relation. For `Cc1[nH]n(-c2ccccc2)c(=O)c1CNc1ccc(S(N)(=O)=O)cc1`, the Ratio IC50 in assay [16] is above 100. This molecule registered an IC50 in assay [17] above 100 µM. Moreover, the Activity in assay [12] is listed as 92%. Also, the ED50 in [18] turned out to be 109 mg/kg.
Turning to `NC1=NNC(=O)C1C(CS(=O)(=O)Cc1ccccc1)c1ccccc1` (stereo not given), the MIC turned out to be 50 µg/mL (≈ 140 µM) in [6], 25 µg/mL (≈ 69.9 µM) in [10] and 25 µg/mL (≈ 69.9 µM) in assay [11].
Turning to `C/C(=N\c1c(C)n(C)n(-c2ccccc2)c1=O)c1cc(O)ccc1O`, the IC50 in [1] was determined as 15.2 µM.
On to `CC1=NN(c2nc(-c3ccccc3)cs2)C(=O)C1`, for which, in assay [19], the Activity was determined as 85.7%.
For the molecule `Cc1c(N/C=C2\C(=N)N(c3ccccc3)N=C2N)c(=O)n(-c2ccccc2)n1C`, in assay [13], the IC50 came to 60.7 µM.
With `O=C1O[C@H]([C@@H](O)CO)C(O)=C1O`, the Activity in assay [19] worked out at 88.2%.
Take `CC1=NN(c2ccccc2)C(=O)C1c1cc(-c2ccc(O)cc2)nc(N)n1` (stereo not given): the Activity in assay [12] stood at 61.84%.
As for `NS(=O)(=O)c1ccc(N/N=C2/C=NN(c3ccc(C(=O)O)cc3)C2=O)cc1`, the Activity in assay [12] turned out to be 72.72%. For the same molecule, the ED50 in assay [18] came to 79 µmol/kg.
With `CC1=NN(C(=S)NN)C(=O)/C1=N/Nc1ccc(C)cc1`, the results for the MIC in assay [5], in assay [6] and in [7] were 125 µg/mL (≈ 431 µM), 2.9 µg/mL (≈ 9.99 µM) and 7.8 µg/mL (≈ 26.9 µM), respectively.
`O=C1CC(Nc2ccccc2NC(=S)NC2CCCCC2)=NN1`: the Ratio IC50 in assay [16] worked out at 4.73. Besides, the Activity in assay [12] was determined as 56%.
